Measurements as given in ChEMBL document CHEMBL1127765, “16-propyl derivatives of estradiol as inhibitors of 17-hydroxysteroid dehydrogenase type 1” (Bioorg Med Chem Lett, 1994).

How the values were obtained:
[1] = biological target: T1, 17-beta-hydroxysteroid dehydrogenase type 1 (Homo sapiens, UniProt P14061); experiment: Compound was tested for the inhibition of 17-beta-hydroxysteroid dehydrogenase type 1(17-beta-HSD type 1)
T1 sequence (P14061 whole entry): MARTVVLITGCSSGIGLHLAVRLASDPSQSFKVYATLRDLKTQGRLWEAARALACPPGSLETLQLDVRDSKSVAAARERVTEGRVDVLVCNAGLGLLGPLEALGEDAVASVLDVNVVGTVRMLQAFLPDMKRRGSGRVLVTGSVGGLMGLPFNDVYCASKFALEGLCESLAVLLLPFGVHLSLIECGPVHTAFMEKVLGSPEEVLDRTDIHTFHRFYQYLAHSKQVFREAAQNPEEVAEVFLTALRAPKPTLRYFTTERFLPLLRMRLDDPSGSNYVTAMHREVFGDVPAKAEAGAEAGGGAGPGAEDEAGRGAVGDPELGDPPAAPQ

[2] = biological target: T2, 17-beta-hydroxysteroid dehydrogenase type 1 (Homo sapiens) (UniProt P14061); experiment: Compound was tested for the inhibition of 17-beta-hydroxysteroid dehydrogenase type 1(17-beta-HSD type 1) at 1 uM concentration
T2 sequence (whole entry): T1 sequence (P14061 whole entry)

[3] = biological target: T2, 17-beta-hydroxysteroid dehydrogenase type 1 (Homo sapiens); experiment: Compound was tested for the inhibition of 17-beta-hydroxysteroid dehydrogenase type 1(17-beta-HSD type 1) at 10 uM concentration

| Structure (SMILES) | IC50 [1] | inhibition [2] | inhibition [3] |
| --- | --- | --- | --- |
| C[C@]12CC[C@@H]3c4ccc(O)cc4CC[C@H]3[C@@H]1C[C@@H](CCCF)[C@@H]2O | 4300 nM | 49% | 81% |
| C[C@]12CC[C@@H]3c4ccc(O)cc4CC[C@H]3[C@@H]1C[C@@H](CCCCl)[C@@H]2O | 1000 nM | 88% | 92% |
| C[C@]12CC[C@@H]3c4ccc(O)cc4CC[C@H]3[C@@H]1C[C@@H](CCCI)[C@@H]2O | 420 nM | 68% | 92% |
| CCC[C@@H]1C[C@H]2[C@@H]3CCc4cc(O)ccc4[C@H]3CC[C@]2(C)[C@H]1O |  | 29% | 69% |
| C=CC[C@@H]1C[C@H]2[C@@H]3CCc4cc(O)ccc4[C@H]3CC[C@]2(C)[C@H]1O |  | 26% | 63% |
| C[C@]12CC[C@@H]3c4ccc(O)cc4CC[C@H]3[C@@H]1C[C@@H](CCCBr)[C@@H]2O | 460 nM | 70% | 94% |
| C[C@]12CC[C@@H]3c4ccc(O)cc4CC[C@H]3[C@@H]1C[C@@H](CCCO)[C@@H]2O |  | 17% | 57% |
| C[C@]12CC[C@@H]3c4ccc(O)cc4CC[C@H]3[C@@H]1C[C@@H](CCCSC#N)[C@@H]2O | 1150 nM | 82% | 95% |
